By T/C is commonly meant the ratio of treated to control.

Data on twelve compounds can be found in ChEMBL document CHEMBL1135507, “II. Synthesis and biological evaluation of some bioisosteres and congeners of the antitumor agent, 2-(4-[(7-chloro-2-quinoxalinyl)oxy]phenoxy)propionic acid (XK469)” (2002).

Assay [1] deals with Mus musculus. The assay can be described thus: […] cytotoxicity against advanced stage pancreatic ductal adenocarcinoma 03 after the administration of 7 injections (iv) at a dose of 560(mg/kg) in 7 Mice. In kind it is functional.
Assay [2] deals with Mus musculus. Put plainly: […] cytotoxicity against advanced stage pancreatic ductal adenocarcinoma 03 after the administration of 7 injections (iv) at a dose of 560(mg/kg). Format: functional.
Assay [3] can be described thus: In vitro cytotoxicity against resistant mammary adenocarcinoma-17/adr(M17/adr) after the administration of 6 injections (iv) at a dose of 450 (mg/kg). In kind it is functional, Mus musculus.
Assay [4] is described as follows: […] cytotoxicity against resistant mammary adenocarcinoma-17/adr(M17/adr) after the administration of 6 injections (iv) at a dose of 450 (mg/kg) in 5 Mice. In kind it is functional, Mus musculus.
Assay [5] concerns Mus musculus. The assay can be described thus: […] cytotoxicity against advanced stage pancreatic ductal adenocarcinoma 03 after the administration of 6 injections (iv) at a dose of 480 (mg/kg). Format: functional.
The subject of assay [6] is Mus musculus. The assay can be described thus: […] cytotoxicity against advanced stage pancreatic ductal adenocarcinoma 03 after the administration of 6 injections (iv) at a dose of 480 (mg/kg) in 4 Mice. Format: functional.
Assay [7] can be described thus: In vitro cytotoxicity against resistant mammary adenocarcinoma-17/adr(M17/adr) after the administration of 7 injections (iv) at a dose of 324(mg/kg). Format: functional, Mus musculus.
Assay [8] in a line: In vitro cytotoxicity against resistant mammary adenocarcinoma-17/adr(M17/adr) after the administration of 7 injections (iv) at a dose of 324(mg/kg) in 5 Mice. In kind it is functional, Mus musculus.
Assay [9] can be described thus: In vitro cytotoxicity against resistant mammary adenocarcinoma-17/adr(M17/adr) after the administration of 6 injections (iv) at a dose of 300 mg/kg in 5 Mice. In kind it is functional, Mus musculus.
For assay [10], the system named is Mus musculus. The assay can be described thus: […] cytotoxicity against advanced stage pancreatic ductal adenocarcinoma 03 after the administration of 7 injections (iv) at a dose of 336(mg/kg) in 5 Mice. Format: functional.
The test system of assay [11] is Mus musculus. Put plainly: […] cytotoxicity against advanced stage pancreatic ductal adenocarcinoma 03 after the administration of 7 injections (iv) at a dose of 336(mg/kg). Format: functional.
A short description of assay [12]: In vitro cytotoxicity against resistant mammary adenocarcinoma-17/adr(M17/adr) after the administration of 6 injections (iv) at a dose of 300 mg/kg. Format: functional, Mus musculus.
For assay [13], the system named is Mus musculus. The assay can be described thus: […] cytotoxicity against advanced stage pancreatic ductal adenocarcinoma 03 after the administration of 5 injections (iv) at a dose of 450 (mg/kg). In kind it is functional.
Assay [14] has as its system Mus musculus. Put plainly: […] cytotoxicity against advanced stage pancreatic ductal adenocarcinoma 03 after the administration of 5 injections (iv) at a dose of 450 (mg/kg) in 5 Mice. Format: functional.
Assay [15] deals with Mus musculus. Put plainly: […] cytotoxicity against advanced stage pancreatic ductal adenocarcinoma 03 after the administration of 5 injections (iv) at a dose of 450 (mg/kg) in 5 mice. In kind it is functional.
Assay [16] is described as follows: In vitro cytotoxicity against resistant mammary adenocarcinoma-17/adr(M17/adr) after the administration of 6 injections (iv) at a dose of 352(mg/kg). In kind it is functional, Mus musculus.
A short description of assay [17]: In vitro cytotoxicity against resistant mammary adenocarcinoma-17/adr(M17/adr) after the administration of 6 injections (iv) at a dose of 352(mg/kg) in 5 Mice. In kind it is functional, Mus musculus.
A short description of assay [18]: […] cytotoxicity against resistant mammary adenocarcinoma-17/adr(M17/adr) after the administration of 7 injections (iv) at a dose of 462 (mg/kg). Format: functional, Mus musculus.
Assay [19] deals with Mus musculus. The assay can be described thus: […] cytotoxicity against resistant mammary adenocarcinoma-17/adr(M17/adr) after the administration of 7 injections (iv) at a dose of 462 (mg/kg);Activity value is none. Format: functional, organism-based.
The nature of assay [20]: In vitro cytotoxicity against resistant mammary adenocarcinoma-17/adr(M17/adr) after the administration of 7 injections (iv) at a dose of 462 (mg/kg) in 4 Mice. Format: functional, Mus musculus.
A short description of assay [21]: In vitro cytotoxicity against resistant mammary adenocarcinoma-17/adr(M17/adr) after the administration of 7 injections (iv) at a dose of 370 (mg/kg) in 5 Mice. In kind it is functional, Mus musculus.
Assay [22] can be described thus: In vitro cytotoxicity against resistant mammary adenocarcinoma-17/adr(M17/adr) after the administration of 7 injections (iv) at a dose of 370 (mg/kg). Format: functional, Mus musculus.
Assay [23] is described as follows: […] cytotoxicity against resistant mammary adenocarcinoma-17/adr(M17/adr) after the administration (iv) of 13 injections at a dose of 364(mg/kg). In kind it is functional, Mus musculus.
Assay [24] is described as follows: […] cytotoxicity against resistant mammary adenocarcinoma-17/adr(M17/adr) after the administration (iv) of 13 injections at a dose of 364(mg/kg) in 5 Mice. Format: functional, Mus musculus.
The subject of assay [25] is Mus musculus. The assay can be described thus: […] cytotoxicity against resistant mammary adenocarcinoma-17/adr(M17/adr) after the administration of 7 injections (iv) at a dose of 455 (mg/kg); Activity value is none. In kind it is functional, organism-based.
The nature of assay [26]: In vitro cytotoxicity against resistant mammary adenocarcinoma-17/adr(M17/adr) after the administration of 7 injections (iv) at a dose of 455 (mg/kg). Format: functional, Mus musculus.
Assay [27] can be described thus: In vitro cytotoxicity against resistant mammary adenocarcinoma-17/adr(M17/adr) after the administration of 7 injections (iv) at a dose of 455 (mg/kg) in 3 Mice. In kind it is functional, Mus musculus.

Activity calls are given as the source filed them. No cut-off for these calls is given here. Bounds are passed on as bounds.

`CC(Oc1ccc(Oc2ccc3ccc(Cl)cc3n2)cc1)C(=O)O` (stereo not drawn): in the assay on Mus musculus [1], the Cures is listed as 0 and the Drug deaths was 0. Moreover, in the assay with Mus musculus [2], the Activity rating is 2.8, the “Body weight loss at nadir” value stood at 3.7%, the “Log tumor cell kill” value is 2.3 and the T/C was 14.1%.

In the case of `COc1ccc2ccc(Oc3ccc(OC(C)C(=O)O)cc3)nc2c1` (stereo not drawn), in [3], the Activity rating was more than 2.8, the “Body weight loss at nadir” value is given as -5%, the “Log tumor cell kill” value is 3 and the T/C is recorded as 0%. Also, in [4], the Cures turned out to be 0 and the Drug deaths turned out to be 0.

With `CC(Oc1ccc(Oc2ccc3ccc(Br)cc3n2)cc1)C(=O)O` (stereo not drawn), in the assay on Mus musculus [5], the Activity rating was more than 2.8, the “Body weight loss at nadir” value turned out to be 5.9%, the “Log tumor cell kill” value was found to be 3.1 and the T/C turned out to be 2.8%. Besides, in the assay on Mus musculus [6], the Cures is reported as 0 and the Drug deaths is on record as 0.

Take `CC(Oc1ccc(Oc2cnc3ccc(Cl)cc3n2)cc1)C(=O)O` (stereo not drawn): in the assay on Mus musculus [1], the Cures turned out to be 0 and the Drug deaths was found to be 0. Moreover, in the assay with Mus musculus [2], the Activity rating was found to be 2.8, the “Body weight loss at nadir” value amounted to 2.5%, the “Log tumor cell kill” value is 2 and the T/C was 24.5%.

As to `CC(Oc1ccc(Oc2ccc3ccc(F)cc3n2)cc1)C(=O)O` (racemic), in assay [7], the Activity rating was 1.9, the “Body weight loss at nadir” value was -1.6%, the “Log tumor cell kill” value turned out to be 1.5 and the T/C came to 14%. In [8], this compound had a Cures of 0 and a Drug deaths of 0.

As to `CC(Oc1ccc(Oc2ccc3ccc(Cl)cc3n2)cc1)C(=O)O` (racemic), in [9], the Cures is on record as 0 and the Drug deaths stood at 0. Further, in the assay on Mus musculus [10], the Cures came to 0 and the Drug deaths is given as 0. In the assay on Mus musculus [11], the Activity rating was 2.8, the “Body weight loss at nadir” value was -8.9%, the “Log tumor cell kill” value amounted to 2.6 and the T/C came out at 0%. Further, in assay [12], the Activity rating was more than 2.8, the “Body weight loss at nadir” value was -10.6%, the “Log tumor cell kill” value is listed as 3.8 and the T/C is 0%.

As for `COc1ccc2ccc(Oc3ccc(OC(C)C(=O)O)cc3)nc2c1` (racemic), in the assay on Mus musculus [13], the Activity rating is recorded as 1.2, the “Body weight loss at nadir” value was -2%, the “Log tumor cell kill” value came to 0.8 and the T/C is recorded as 45%. The Drug deaths in the assay with Mus musculus [14] is 0. For the same compound, the Cures with Mus musculus [15] is given as 0.

Regarding `CC(Oc1ccc(Oc2ccc3ccc(Br)cc3n2)cc1)C(=O)O` (racemic), in assay [16], the Activity rating was more than 2.8, the “Body weight loss at nadir” value is given as -5.5%, the “Log tumor cell kill” value is listed as 4.2 and the T/C was 0%. In [17], this compound yielded a Cures of 0 and a Drug deaths of 0.

As for `CC(Oc1ccc(Oc2nc3cc(Cl)ccc3o2)cc1)C(=O)O` (racemic), in assay [18], the Activity rating is less than 0.7, the “Body weight loss at nadir” value was -2.3% and the T/C is more than 100%. The “Log tumor cell kill” value with Mus musculus [19] is “inactive”. Besides, in assay [20], the Cures amounted to 0 and the Drug deaths came to 0.

In assay [21], `CC(Oc1ccc(Oc2ccc3ccc(I)cc3n2)cc1)C(=O)O` (racemic) registered a Cures of 0 and a Drug deaths of 0. Besides, in [22], the Activity rating turned out to be 1.9, the “Body weight loss at nadir” value is recorded as -4%, the “Log tumor cell kill” value was 2.1 and the T/C was determined as 2%.

Turning to `CC(Oc1ccc(Oc2cnc3ccc(Cl)cc3n2)cc1)C(=O)O` (racemic), in assay [23], the Activity rating is more than 2.8, the “Body weight loss at nadir” value turned out to be 0%, the “Log tumor cell kill” value turned out to be 2.82 and the T/C is on record as 10.3%. Also, in [24], the Cures came to 0 and the Drug deaths is 0.

In the case of `CC(Oc1ccc(Oc2nc3ccc(Cl)cc3o2)cc1)C(=O)O` (racemic) [FENOXAPROP], the “Log tumor cell kill” value in the assay on Mus musculus [25] is “inactive”. In assay [26], the Activity rating is listed as less than 0.7, the “Body weight loss at nadir” value was 0% and the T/C is listed as more than 100%. In [27], this compound displayed a Cures of 0 and a Drug deaths of 0.
